In patent publication US7943140B2, “Compositions and methods for the treatment and prophylaxis of multiple strains and subtypes of HIV-1” (priority 2006, dated 2011):
Marks after values point to notes of the source that are not given here.

Tests used:
[1] = tested on: HIV-1 Tat (rTat, AA 1-72 variants); experiment: Anti-Tat serum antibody titer (ELISA on rTat) after immunization of rats; assay type: in vivo, rat; conditions: for GMT: rats, week 5, against rTat REK, FIG. 11; for 4 week anti-Tat titer GMT: Rat
Method: (§1) Immunogens prepared as described in Example 1 were taken up in buffered saline and injected IP in mice and rats, and SC in rabbits. Unless otherwise stated mice were immunized IP with 1 mg of Immunogen at Day 0 and Week 2 and serums were obtained at Week 4 for titration. Other regimens and species were as noted in the figures.
(§2) Serums were assayed to determine anti-Tat titers by conventional ELISA methods. Briefly, Maxisorp Immuno plates were coated with 2 ng/well rTat and incubated at 22° C. for 1 hour or 4° C. overnight. After thorough washing with 0.1% triton X 100 buffer, blocking with 1% bovine serum albumin (BSA) and rewashing, serum dilutions were applied and incubated at 22° C. for 1 hour. After incubation, the plates were thoroughly washed with triton-X 100 buffer again and 1/10,000 goat anti-mouse IgG-horseradish peroxidase (HRP) conjugate (or the appropriate reagent for rat or rabbit) was applied. The plates were then incubated for 1 hour at 22° C. then washed thoroughly and developed with ABTS for 45 minutes at room temperature on a shaker table. Absorbance was measured at 405 nm. Control wells lacking serum were measured and the titration endpoint was the reciprocal of the […] dilution with an OD greater than mean+8 SDs.
(§3) Animals were purchased from Harlan Laboratories and acclimated at Molecular Diagnostic Services, Inc., for at least one week before immunization. Both BALBc and C57BL6/BALBc F1 mice were used. Lewis rats were used as indicated. Immunogens prepared as described in Example 1 were taken up in buffered saline and injected IP in mice and rats, and administered subcutaneously in Cynomolgous macaque. Animals were immunized with immunogen at Day 0 and Week 2 (day 14) and serums were obtained at Week 4 (day 28) for titration. Doses/animal are noted in Table 4, along with their anti-Tat titers.
Three rats per group were immunized with a different dosage per group of a mixture of all of the experimental immunogens encompassed by the formula Pam3[…] -S-V-D-P-(R/K/N/S)-L-(E/D)-P-W-(K/N)-H-P-G-S-amide (SEQ ID NO: 63); Tat amino acid residue 7, 9, and 12 “wobbles”) with a polar charged sequence flanked by the linkers of the Pam3C (i.e., -S-K-K-K-K-S-). This immunogen is referred to as “TUTI-K4”. Each rat was administered a dose of either 0.1 mg TUTI-K4, or 1 mg TUTI-K4 or 10 mgs TUTI-K4 at day 0. Each rat was boosted with the same dose at week 3. The serum antibody titers for each rat were measured against the full length recombinant Tat (AA 1-72) REK variant protein.

[2] = tested on: full length recombinant Tat; experiment: Tat depletion assay (rat immune serum on Protein A beads, sandwich ELISA); assay type: binding, HIV-1; conditions: said to be associated with the week 5 titers at all doses (0.1, 1, 10 mg)
Method: Classical techniques to measure Tat depletion could not be used due to the lack of a membrane that retained antibody but permitted rTat diffusion. Briefly, this assay employs beads coated with antibody which are exposed to rTat and incubated. The antibody binds the Tat, depending upon the amount of Tat in solution. This assay thus measures how well the antibodies in the serum deplete the quantity of full length recombinant Tat.
Control: Normal rat serum not-immunized with HIV-1 Tat B cell epitopes (10% or 1%) was bound to Protein A beads and washed.
Samples: IgG of 10% and 1% serum of the immunized rat were bound to Protein A beads and washed. Undiluted serum has an anti-Tat titer of 1,000,000, as determined according to the method described in Example 3.
Both the Protein A beads of control and of samples were then incubated at room temperature for 30 minutes with a rTat solution. After centrifugation, the levels of Tat in supernatant were measured with a sandwich ELISA. The free Tat after exposure to 10% or 1% immune serum protein A coated beads was expressed as a percentage of the free Tat after exposure to 10% or 1% normal […] serum protein A coated beads, respectively.

[3] = tested on: HIV-1 Tat (rTat, AA 1-72 variants); experiment: Anti-Tat serum antibody titer (ELISA on rTat) after immunization of mice; assay type: in vivo, mouse; conditions: for 4 week anti-Tat titer GMT: Mouse; for Titer, GMT: mice, 1.0 mg/mouse IP
Method: as §1, §2, §3
Animals were purchased from Harlan Laboratories and acclimated at Molecular Diagnostic Services, Inc., for at least one week before immunization. Both BALBc and C57BL6/BALBc F1 mice were used. Pam2C-capped immunogens prepared as described in Example 1 were taken up in buffered saline and injected IP. Mice were immunized with 3 injections of 1.0 mg/mouse Pam2C-capped immunogen with titrations before first boost and 2 weeks after each boost according to Table 5.

[4] = tested on: HIV-1 Tat (rTat); experiment: Anti-Tat serum antibody titer (ELISA on rTat) after immunization of Cynomolgous macaque; assay type: in vivo; conditions: 10.0 mg/animal subcutaneously at Day 0 and Week 2
Method: as §2
as §3, with “Animals were immunized with immunogen at Day 0 and Week 2 (day 14) and serums were obtained at Week 4 (day 28) for titration. Doses/animal are noted in Table 4, along with their anti-Tat titers.” left out

[5] = Toxicity of immunogen dose in mice; assay type: in vivo; conditions: Mouse; 10.0 mg/animal (400 mg/kg)
Excerpt: as §3

[6] = 1.0 mg/animal IP at Day 0 and Week 2

In the case of “Pam3C-SKKKKSQYIKANSKFIGITEL -S-V-D-P-(R/K/N/S)-L-(E/D)-P-W-(K/N)-H-P-G-S-amide [TUTI-K4]”, the GMT ([1]; 0.1 mg at day 0 and week 3) is reported as “about 500,000”, the GMT ([1]; 1 mg at day 0 and week 3) is reported as “about 1,000,000” and the GMT ([1]; 10 mg at day 0 and week 3) is reported as “about 1,000,000”. The “reduction of free Tat levels” value [2] was “greater than 99%”.

For “Pam3C-SSQYIKANSKFIGITELSVDP-(R/K/N/S)-L-(E/D)-P-W-(K/N)-H-P-G-S-amide [Pam3-QYIK-TEP1]”, the “4 week anti-Tat titer GMT” value [3, 6] was 120,000*, the “4 week anti-Tat titer GMT” value ([3]; 3.0 mg/animal IP at Day 0 and Week 2) was 220,000 and the “geometric mean antibody titers in serum” value ([3]; single mouse, on all eight rTat (AA 1-72) immunodominant epitope variants, FIG. 2) was > 100,000. The “4 week anti-Tat titer GMT” value [1, 6] was 170,000, the “4 week anti-Tat titer GMT” value ([1]; 10.0 mg/animal IP at Day 0 and Week 2) was 460,000 and the “antibody titers (GMT) in serum” value ([1]; single rat, prime day 0, boosts at 3 and 6 weeks, bleed at 8 weeks, on all eight rTat (AA1-72) variants, FIG. 9) was > 1,000,000. For the same substance, the “4 week anti-Tat titer GMT” value [4] was 900,000 and the toxicity [5] was “Lethal**”.

With “Pam2C-SSQYIKANSKFIGITELSVDP-(R/K/N/S)-L-(E/D)-P-W-(K/N)-H-P-G-S-amide [Pam2-QYIK-TEP1]” the “Titer, GMT” value ([3]; prime boost D0, W2, W4, bleed week 2) was 140,000, the “Titer, GMT” value ([3]; prime boost D0, W2, W4, bleed week 4) was 950,000 and the “Titer, GMT” value ([3]; prime boost D0, W2, W4, bleed week 6) was 750,000. The “Titer, GMT” value ([3]; prime boost D0, W3, W6, bleed week 3) was 160,000, the “Titer, GMT” value ([3]; prime boost D0, W3, W6, bleed week 5) was 930,000 and the “Titer, GMT” value ([3]; prime boost D0, W3, W6, bleed week 8) was 3,300,000. The “Titer, GMT” value ([3]; prime boost D0, W4, W8, bleed week 4) was 70,000, the “Titer, GMT” value ([3]; prime boost D0, W4, W8, bleed week 6) was 400,000 and the “Titer, GMT” value ([3]; prime boost D0, W4, W8, bleed week 10) was 3,000,000.
